This passage reports IC50 results from the Kinase Knowledgebase extract (Sharma et al. 2016).

Targets include EGFR (UniProt P00533); CDK2 (UniProt P24941); MAPK14 (UniProt Q16539).
A further assay has as its target PIK3CD (Human) (UniProt O00329). The experiment in a line: Inhibition of PIK3CD Kinase Activity.
The next assay concerns the target PIK3CG (UniProt P48736). The experiment in a line: Inhibition of PIK3CG Kinase Activity.
Another assay addresses PIK3CA (human) (UniProt P42336). Nature of the assay: Inhibition of PIK3CA Kinase Activity.
The target of assay [1] is PIK3CB (Human) (UniProt P42338). The experiment in a line: Inhibition of CD9 Antibody Induced Platelet Aggregation.
Chain of PIK3CB (Human) (P42338 whole entry, looked up): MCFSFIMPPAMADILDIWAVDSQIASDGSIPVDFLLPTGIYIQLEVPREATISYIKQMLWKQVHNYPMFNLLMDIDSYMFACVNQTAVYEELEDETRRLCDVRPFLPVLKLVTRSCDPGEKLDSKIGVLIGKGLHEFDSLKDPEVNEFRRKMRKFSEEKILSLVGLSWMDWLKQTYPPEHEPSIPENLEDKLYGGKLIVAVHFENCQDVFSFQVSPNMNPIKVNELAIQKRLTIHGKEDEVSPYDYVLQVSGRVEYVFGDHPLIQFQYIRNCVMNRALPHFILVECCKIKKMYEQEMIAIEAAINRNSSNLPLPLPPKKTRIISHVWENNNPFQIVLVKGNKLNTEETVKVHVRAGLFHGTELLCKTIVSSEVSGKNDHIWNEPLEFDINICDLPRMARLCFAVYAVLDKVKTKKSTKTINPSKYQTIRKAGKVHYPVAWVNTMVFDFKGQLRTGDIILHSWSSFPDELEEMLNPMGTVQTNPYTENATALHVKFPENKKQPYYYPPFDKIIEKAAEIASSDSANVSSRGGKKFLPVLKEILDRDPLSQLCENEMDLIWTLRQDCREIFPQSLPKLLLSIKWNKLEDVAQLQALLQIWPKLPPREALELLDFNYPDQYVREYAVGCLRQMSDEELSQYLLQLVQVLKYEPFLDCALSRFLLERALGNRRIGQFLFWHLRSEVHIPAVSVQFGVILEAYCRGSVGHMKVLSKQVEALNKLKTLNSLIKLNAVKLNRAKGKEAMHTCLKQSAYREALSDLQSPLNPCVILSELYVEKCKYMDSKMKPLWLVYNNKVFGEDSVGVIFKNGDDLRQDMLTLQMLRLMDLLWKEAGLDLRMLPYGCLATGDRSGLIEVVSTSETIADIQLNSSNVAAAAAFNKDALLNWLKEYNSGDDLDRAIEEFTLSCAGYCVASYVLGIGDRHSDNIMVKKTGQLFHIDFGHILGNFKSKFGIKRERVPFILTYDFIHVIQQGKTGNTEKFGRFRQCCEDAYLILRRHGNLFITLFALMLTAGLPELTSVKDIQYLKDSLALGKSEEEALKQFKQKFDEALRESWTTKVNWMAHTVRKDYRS
For assay [2] the target is unchanged. Nature of the assay: Inhibition of U937 Cell Proliferation.
The target is the same in assay [3]. Nature of the assay: Assessment of Neutrophil ROS Response in Human Whole Blood. Conditions: neutrophils.
Assay [4] shares this target. The experiment in a line: Inhibition of Platelet Thrombus Formation under Flow.

Chain of PIK3CD (Human) (O00329 whole entry, looked up): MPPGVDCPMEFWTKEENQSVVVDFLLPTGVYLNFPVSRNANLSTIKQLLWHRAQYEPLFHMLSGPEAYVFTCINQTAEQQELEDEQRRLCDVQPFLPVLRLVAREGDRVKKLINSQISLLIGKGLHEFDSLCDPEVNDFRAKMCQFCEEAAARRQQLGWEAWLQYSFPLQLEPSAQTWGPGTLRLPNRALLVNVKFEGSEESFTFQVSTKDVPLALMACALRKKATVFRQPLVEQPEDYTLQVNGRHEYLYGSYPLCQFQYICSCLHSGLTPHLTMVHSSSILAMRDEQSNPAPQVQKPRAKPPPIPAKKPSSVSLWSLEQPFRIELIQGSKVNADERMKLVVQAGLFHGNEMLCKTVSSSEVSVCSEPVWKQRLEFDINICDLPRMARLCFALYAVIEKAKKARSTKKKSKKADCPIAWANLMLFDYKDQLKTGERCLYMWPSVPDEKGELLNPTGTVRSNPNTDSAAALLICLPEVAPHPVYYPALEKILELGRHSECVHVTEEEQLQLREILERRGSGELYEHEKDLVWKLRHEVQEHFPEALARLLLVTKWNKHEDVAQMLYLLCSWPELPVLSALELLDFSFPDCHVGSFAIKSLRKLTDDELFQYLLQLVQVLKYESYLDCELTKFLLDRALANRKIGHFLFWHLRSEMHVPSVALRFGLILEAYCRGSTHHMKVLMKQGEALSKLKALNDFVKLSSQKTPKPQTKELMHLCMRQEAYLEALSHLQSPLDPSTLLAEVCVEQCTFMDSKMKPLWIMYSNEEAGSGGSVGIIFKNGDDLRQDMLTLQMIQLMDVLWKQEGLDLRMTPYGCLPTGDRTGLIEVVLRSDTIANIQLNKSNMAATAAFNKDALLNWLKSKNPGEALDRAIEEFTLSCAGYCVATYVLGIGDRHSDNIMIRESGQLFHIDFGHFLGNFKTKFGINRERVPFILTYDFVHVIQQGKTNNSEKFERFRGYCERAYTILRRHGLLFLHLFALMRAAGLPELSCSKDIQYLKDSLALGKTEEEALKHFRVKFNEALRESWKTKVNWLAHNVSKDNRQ
Chain of PIK3CA (human) (P42336 whole entry, looked up): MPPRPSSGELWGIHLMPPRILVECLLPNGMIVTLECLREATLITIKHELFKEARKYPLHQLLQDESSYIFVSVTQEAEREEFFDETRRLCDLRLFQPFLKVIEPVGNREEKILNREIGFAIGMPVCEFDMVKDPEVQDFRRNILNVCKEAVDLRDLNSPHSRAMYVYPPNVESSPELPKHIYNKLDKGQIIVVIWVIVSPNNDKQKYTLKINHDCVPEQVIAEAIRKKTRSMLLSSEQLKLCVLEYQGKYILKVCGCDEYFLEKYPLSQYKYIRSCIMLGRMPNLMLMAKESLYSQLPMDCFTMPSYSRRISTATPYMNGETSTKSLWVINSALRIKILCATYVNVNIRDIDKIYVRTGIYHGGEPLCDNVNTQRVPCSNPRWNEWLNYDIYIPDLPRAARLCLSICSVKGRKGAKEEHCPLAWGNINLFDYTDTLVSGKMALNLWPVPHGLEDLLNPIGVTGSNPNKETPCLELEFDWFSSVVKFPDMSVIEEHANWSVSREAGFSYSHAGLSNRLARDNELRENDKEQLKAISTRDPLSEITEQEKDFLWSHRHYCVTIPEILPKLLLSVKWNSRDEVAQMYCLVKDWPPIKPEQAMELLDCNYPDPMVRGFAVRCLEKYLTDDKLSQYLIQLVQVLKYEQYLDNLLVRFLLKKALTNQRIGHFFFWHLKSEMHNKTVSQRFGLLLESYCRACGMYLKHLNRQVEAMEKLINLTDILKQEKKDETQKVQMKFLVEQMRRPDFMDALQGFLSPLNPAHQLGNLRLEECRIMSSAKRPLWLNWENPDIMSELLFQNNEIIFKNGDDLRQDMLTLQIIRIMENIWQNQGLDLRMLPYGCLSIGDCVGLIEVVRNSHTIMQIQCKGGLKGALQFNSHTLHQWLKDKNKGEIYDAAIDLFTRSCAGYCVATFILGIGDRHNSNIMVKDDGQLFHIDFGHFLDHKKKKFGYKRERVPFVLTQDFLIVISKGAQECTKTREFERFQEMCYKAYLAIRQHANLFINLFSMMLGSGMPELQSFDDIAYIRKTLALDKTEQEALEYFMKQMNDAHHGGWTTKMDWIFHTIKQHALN
Chain of PIK3CG (P48736 whole entry, looked up): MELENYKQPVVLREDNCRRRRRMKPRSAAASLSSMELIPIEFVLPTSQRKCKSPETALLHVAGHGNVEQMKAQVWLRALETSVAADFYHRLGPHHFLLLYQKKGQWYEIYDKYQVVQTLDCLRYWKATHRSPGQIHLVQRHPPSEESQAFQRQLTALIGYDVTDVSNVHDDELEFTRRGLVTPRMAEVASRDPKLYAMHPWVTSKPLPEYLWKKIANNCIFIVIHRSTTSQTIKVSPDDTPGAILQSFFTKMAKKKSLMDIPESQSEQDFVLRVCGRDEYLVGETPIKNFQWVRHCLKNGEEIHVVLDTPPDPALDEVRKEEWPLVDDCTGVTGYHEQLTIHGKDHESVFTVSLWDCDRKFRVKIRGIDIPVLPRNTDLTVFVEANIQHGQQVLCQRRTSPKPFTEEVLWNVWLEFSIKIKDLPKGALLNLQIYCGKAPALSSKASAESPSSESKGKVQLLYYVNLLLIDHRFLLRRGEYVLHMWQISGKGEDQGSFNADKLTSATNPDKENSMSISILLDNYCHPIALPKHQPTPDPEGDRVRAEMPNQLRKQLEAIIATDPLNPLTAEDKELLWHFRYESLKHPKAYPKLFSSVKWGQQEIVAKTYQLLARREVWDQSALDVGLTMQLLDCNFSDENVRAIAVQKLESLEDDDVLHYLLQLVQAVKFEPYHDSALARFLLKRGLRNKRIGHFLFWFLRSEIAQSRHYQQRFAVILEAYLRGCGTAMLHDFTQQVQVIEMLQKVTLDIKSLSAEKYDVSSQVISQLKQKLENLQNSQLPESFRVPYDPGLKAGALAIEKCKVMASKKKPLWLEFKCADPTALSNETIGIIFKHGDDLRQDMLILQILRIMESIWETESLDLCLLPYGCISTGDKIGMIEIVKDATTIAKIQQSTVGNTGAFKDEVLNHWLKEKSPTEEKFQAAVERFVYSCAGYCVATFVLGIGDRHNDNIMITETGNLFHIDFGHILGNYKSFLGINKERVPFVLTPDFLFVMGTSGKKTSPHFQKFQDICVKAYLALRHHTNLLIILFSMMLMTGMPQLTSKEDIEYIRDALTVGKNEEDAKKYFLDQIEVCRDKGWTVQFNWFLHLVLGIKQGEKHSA
Chain of MAPK14 (Q16539 whole entry, looked up): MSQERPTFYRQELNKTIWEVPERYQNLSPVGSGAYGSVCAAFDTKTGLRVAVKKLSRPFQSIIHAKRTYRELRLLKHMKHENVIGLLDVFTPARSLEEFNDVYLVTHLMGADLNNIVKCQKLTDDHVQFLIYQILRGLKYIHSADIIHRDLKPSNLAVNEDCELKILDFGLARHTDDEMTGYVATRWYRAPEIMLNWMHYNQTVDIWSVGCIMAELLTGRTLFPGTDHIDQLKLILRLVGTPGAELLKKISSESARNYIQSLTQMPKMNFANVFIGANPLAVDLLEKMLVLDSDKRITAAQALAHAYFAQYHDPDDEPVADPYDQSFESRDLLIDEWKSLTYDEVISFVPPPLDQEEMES

Take `Cc1cc(N[C@H](C)c2ccccc2)c2nc(-c3ccncc3)cc(=O)n2c1`: the IC50 – broadly, the point on the concentration scale where inhibition reaches its midpoint – against PIK3CD (Human) came out at 1 µM; against PIK3CG, 20 µM.

The compound `Cc1cc(C(C)Nc2cc(F)cc(F)c2)c2nc(N3CCOCC3)cc(=O)n2c1` (stereo not drawn) had a half-inhibitory concentration (IC50) at PIK3CA (human) greater than 5 µM.

At PIK3CG, `Cc1cc(C(C)Nc2cccc(C(F)(F)F)c2)c2oc(-c3ccncc3)cc(=O)c2c1` (stereo not drawn) gave an IC50 of 10 µM.

For the compound `Cc1cc(C(C)Nc2cccc(Cl)c2)c2nc(N3CCOCC3)cc(=O)n2c1` (stereo not drawn), the IC50 against PIK3CA (human) was greater than 5 µM.

With `Cc1cccc(NC(C)c2cc(C)cn3c(=O)cc(N4CCOCC4)nc23)c1` (stereo not drawn), at PIK3CA (human), the IC50 is greater than 5 µM.

Regarding `Cc1cc(C(C)Nc2ccccn2)c2nc(N3CCOCC3)cc(=O)n2c1` (stereo not drawn), the IC50 at PIK3CA (human) is greater than 5 µM.

With `O=c1cc(-c2ccncc2)[nH]c2c(-c3ccccc3)cccc12`, the IC50 at PIK3CD (Human) came out at 10 µM.

The compound `Cc1cc(COc2ccccc2)c2oc(-c3ccncc3)cc(=O)c2c1` registered an IC50 against PIK3CG of 10 µM.

`Cc1cc(C(C)Nc2ccc(Cl)c(Cl)c2)c2nc(N3CCOCC3)cc(=O)n2c1` (stereo not drawn) came in with an IC50 against PIK3CA (human) greater than 5 µM.

Turning to `Cc1cc(C(C)n2c(C(F)(F)F)nc3ccccc32)c2oc(-c3ccncc3)cc(=O)c2c1` (stereo not drawn), the IC50 against PIK3CD (Human) and against PIK3CG was 10 µM throughout.

For `Cc1cc(CNc2ccccc2)c2oc(-c3ccncc3)cc(=O)c2c1`, the IC50 on PIK3CD (Human) and against PIK3CG was 10 µM throughout.

In turn, `Cc1cc(CN(C)c2ccccc2)c2nc(N3CCOCC3)cc(=O)n2c1` gave an IC50 at PIK3CA (human) greater than 5 µM.

`Cc1cc(C(C)Oc2ccccc2)c2oc(-c3ccncc3)cc(=O)c2c1` (stereo not drawn) came in with an IC50 on PIK3CG of 20 µM. This lies in the double-digit micromolar range.

`O=c1cc(-c2ccncc2)oc2c(OCc3ccccc3)cccc12`: on PIK3CG, the 50% inhibitory concentration (IC50) was 10 µM.

For the compound `Cc1cc(C(C)Nc2ccccc2)c2oc(-c3ccncc3)cc(=O)c2c1` (stereo not drawn), the IC50 amounted to 0.1 µM against PIK3CB (Human) [1], 5 µM at PIK3CB (Human) [2], 0.005 µM against PIK3CB (Human) [3] and 0.5 µM against PIK3CB (Human) [4].

Take `CC(=O)Nc1ccccc1NCc1cc(C)cc2c(=O)cc(-c3ccncc3)oc12`: the half-inhibitory concentration (IC50) came to 1 µM against PIK3CD (Human) and 5 µM against PIK3CG.

Turning to `Cc1cc(-c2ccccc2)c2nc(-c3ccncc3)cc(=O)n2c1`, the IC50 against PIK3CD (Human) and against PIK3CG was greater than 10 µM throughout.

`Cc1cc(C(C)Nc2ccc(Cl)cc2)c2nc(N3CCOCC3)cc(=O)n2c1` (stereo not drawn) displayed a half-inhibitory concentration (IC50) on PIK3CA (human) greater than 5 µM.

With `Cc1cc(C(C)Nc2ccccc2)c2nc(N3CCOCC3)cc(=O)n2c1` (stereo not drawn), the IC50 was greater than 10 µM at EGFR, greater than 10 µM against CDK2, greater than 10 µM at MAPK14 and greater than 5 µM on PIK3CA (human).

For the compound `CC(Nc1ccccc1N)c1cccc2c(=O)cc(-c3ccncc3)oc12` (stereo not drawn), the IC50 was 0.5 µM against PIK3CD (Human); 0.2 µM against PIK3CB (Human) [1]; 20 µM against PIK3CB (Human) [2]; 0.078 µM against PIK3CB (Human) [3]; 0.25 µM on PIK3CB (Human) [4]; 15 µM against PIK3CG.

For `Cc1cc(C(C)Nc2cccc(C(F)(F)F)c2)c2nc(N3CCOCC3)cc(=O)n2c1` (stereo not drawn), the IC50 at PIK3CA (human) was greater than 5 µM.

At PIK3CD (Human), `O=c1cc(-c2ccncc2)oc2c(NCc3ccccc3)cccc12` returned an IC50 of 0.2 µM.
